One experiment deals with E. coli. The experiment can be described thus: microbe, parasite or virus in culture. As to the method: (§1) Bacteria. Bacterial clinical isolates, used for initial screening and in previous studies [Greber K E et al., 2017], were anonymously provided by the clinical microbiology laboratory of the University of Pittsburgh medical Center. The panel used for secondary screening was from CDC (Table 4), with resistance profiles data. Bacteria are stored in lock-secured −80° C. freezer and typically retrieved by obtaining single colonies on agar plates prior for subsequent liquid broth cultures. Suspensions of test bacteria were prepared from log phase of growth by diluting overnight cultures at 1:100 with fresh cation-adjusted MHB (MHB2, Millipore Sigma, USA) and incubating for additional 3-4 hours. Bacteria were spun at 3000×g for 10 minutes and the pellet resuspended in test condition media (Millipore Sigma, USA) to determine bacterial turbidity using a Den-1B densitometer (Grant Instruments, USA) at 0.5 McFarland (unit of bacterial density) corresponding to […].
(§2) Antibacterial assays. To examine antibacterial activity, this study used minor modifications of a standard growth inhibition assay endorsed by the Clinical and Laboratory Standards Institute (CLSI), as previously described [Greber K E et al., 2017]. Bacteria were incubated with each of the indicated peptides in MHB2. The bacterial cells were kept in an incubator for 18 hours at 37° C., which is linked to a robotic system that feeds a plate reader every hour with one of 8×96-well plates. This set-up allows the collection of growth kinetic data at A 570 (absorbance at 570 nm) to examine growth inhibition in real time (BioTek Instruments, USA). […] To assess bactericidal properties of the peptide, the assay was modified by using 15% fetal bovine serum (FBS, for a more physiologically relevant test condition) mixed with 25% MHB2 and 60% PBS. Bacterial cells (colony forming unit/mL or CFU/mL) were enumerated after incubating treated bacteria for 3 hours and plating serially diluted samples on broth agar medium at 37° C. overnight. […] For killing kinetics, we slightly modified the bactericidal assay to examine bacterial killing at the MBC (or 2×MBC) as a function of time for up to 3 hours. Data were analyzed using GraphPad Prism software.

Experiment [1] concerns MDR clinical strains of ESKAPE pathogens and E. coli provided by the CDC (AR isolates panel). The experiment can be described thus: Advanced testing, MIC against CDC AR isolates panel. The class given is cell-based. The following applies: colistin-resistant strains. How it is done:
as §1, §2

The next experiment deals with E. Faecium. The experiment can be described thus: MIC growth inhibition assay in MHB2. The class given is cell-based, Enterococcus faecium. As to the method: as §1, §2
A further experiment relates to S. aureus. The experiment can be described thus: MIC growth inhibition assay in MHB2. The class given is cell-based, Staphylococcus aureus. How it is done: as §1, §2
In a further experiment the test system is P. aeruginosa. In words: microbe, parasite or virus in culture. As to the method: as §1, §2
For the next experiment, the system named is Enterobacter spp. The experiment can be described thus: MIC growth inhibition assay in MHB2. The class given is cell-based, Enterobacter spp: EA (aerogenes), EC (cloacae). How it is done:
as §1, §2

In another experiment the test system is A. baumannii. In words: microbe, parasite or virus in culture. How it is done: as §1, §2
A further experiment has as its system K. pneumoniae. The experiment can be described thus: MIC growth inhibition assay in MHB2. The class given is cell-based, klebsiella pneumoniae. The following applies: read-out: MIC. As to the method: as §1, §2
For experiment [2], the system named is MDR panel of gram-negative (GNB) and -positive (GPB) bacterial isolates classified as ESKAPE pathogens. How it is done: as §1
Antibacterial assays. To examine antibacterial activity, this study used minor modifications of a standard growth inhibition assay endorsed by the Clinical and Laboratory Standards Institute (CLSI), as previously described [Greber K E et al., 2017]. Bacteria were incubated with each of the indicated peptides in MHB2. The bacterial cells were kept in an incubator for 18 hours at 37° C., which is linked to a robotic system that feeds a plate reader every hour with one of 8×96-well plates. This set-up allows the collection of growth kinetic data at A 570 (absorbance at 570 nm) to examine growth inhibition in real time (BioTek Instruments, USA). […] To assess bactericidal properties of the peptide, the assay was modified by using 15% fetal bovine serum (FBS, for a more physiologically relevant test condition) mixed with 25% MHB2 and 60% PBS. Bacterial cells (colony forming unit/mL or CFU/mL) were enumerated after incubating treated bacteria for 3 hours and plating serially diluted samples on broth agar medium at 37° C. overnight. […] Data were analyzed using GraphPad Prism software.

Values after ≈ are worked out from the molar mass of the structure shown. Like-named read-outs stand apart in the source and are kept apart here. No end group written: not given here.

In the case of RRVWRRVRRVWRRVRRVVRRVW [E71], the MIC against E. coli stood at 1 µM. Further, the cross-resistance with colistin entry in experiment [1] is given as “no cross-resistance at all”.

With `Cc1onc(-c2ccccc2)c1C(=O)N[C@@H]1C(=O)N2[C@@H]1SC(C)(C)[C@@H]2C(=O)O` [Oxa], the MIC against E. Faecium (strain EF23614) is listed as 0.25 µM (≈ 0.1 µg/mL); with E. Faecium (strain EF24670), over 16 µM; in the experiment on E. Faecium (strain EF26215) it was 2 µM (≈ 0.803 µg/mL); against E. Faecium (strain EF26692), 2 µM (≈ 0.803 µg/mL); in the experiment on S. aureus (strain SA12212), 8 µM (≈ 3.21 µg/mL); against S. aureus (strain SA18710), 4 µM (≈ 1.61 µg/mL). Besides, the figures for the MIC against S. aureus (strain SA49775) and against S. aureus (strain SA-US300) were 0.25 µM (≈ 0.1 µg/mL) and 4 µM (≈ 1.61 µg/mL), respectively.

For RRWVRWVRRWVRWVRR [E80], the MIC in the experiment on P. aeruginosa stood at 2 µM.

As for RWVRRVRRWVRRVRRVVRRW [E70], in experiment [1], the cross-resistance with colistin result is reported as “no cross-resistance at all”.

As to RVWRRVRRVWRRVRRVWRRV [E69], in the experiment on P. aeruginosa, the MIC is 2 µM.

In the case of `C[C@@H](O)[C@H]1C(=O)N2C(C(=O)O)=C(S[C@@H]3CN[C@H](C(=O)N(C)C)C3)[C@H](C)[C@H]12` [Mero], the MIC is over 16 µM with Enterobacter spp (strain EA518 (aerogenes)); 16 µM (≈ 6.14 µg/mL) with Enterobacter spp (strain EA596 (aerogenes)); over 16 µM with Enterobacter spp (strain EC470 (cloacae)); 16 µM (≈ 6.14 µg/mL) against Enterobacter spp (strain EC560 (cloacae)); 0.5 µM (≈ 0.192 µg/mL) against E. coli (strain Eco25922); 1 µM (≈ 0.383 µg/mL) with E. coli (strain YDC107). Moreover, the MIC is 8 µM (≈ 3.07 µg/mL) with E. coli (strain YDC337); 8 µM (≈ 3.07 µg/mL) against E. coli (strain YDC748); 4 µM (≈ 1.53 µg/mL) against A. baumannii (strain AB-A2); over 16 µM in the experiment on A. baumannii (strain AB-A3); 8 µM (≈ 3.07 µg/mL) against A. baumannii (strain AB-F8); 8 µM (≈ 3.07 µg/mL) against A. baumannii (strain AB-F9). For the same compound, the MIC with K. pneumoniae (strain KP43816) stood at 1 µM (≈ 0.383 µg/mL); with K. pneumoniae (strain KPA5), 2 µM (≈ 0.767 µg/mL); with K. pneumoniae (strain KPB3), 2 µM (≈ 0.767 µg/mL); in the experiment with K. pneumoniae (strain KPC3) it was 1 µM (≈ 0.383 µg/mL).

Turning to RWVRRVRRWVRRVRRWVRRV [E68], the cross-resistance with colistin result in experiment [1] was “no cross-resistance at all”.

Take RRWVRRVRRVWRRVRRVVRRWV [E4]: the cross-resistance with colistin entry in experiment [1] is listed as “no cross-resistance at all”.

Take `NC[C@H]1O[C@H](O[C@H]2[C@H](O)[C@@H](O[C@H]3O[C@H](CO)[C@@H](O)[C@H](N)[C@H]3O)[C@H](N)C[C@@H]2N)[C@H](N)C[C@@H]1O` [Tob]: the MIC is over 16 µM in the experiment with Enterobacter spp (strain EA518 (aerogenes)); over 16 µM against Enterobacter spp (strain EA596 (aerogenes)); 4 µM (≈ 1.87 µg/mL) in the experiment on Enterobacter spp (strain EC470 (cloacae)); over 16 µM in the experiment on Enterobacter spp (strain EC560 (cloacae)); over 16 µM against E. coli (strain YDC337); 16 µM (≈ 7.48 µg/mL) in the experiment on E. coli (strain YDC748). Also, the MIC with P. aeruginosa (strain PA01) was 1 µM (≈ 0.468 µg/mL); against P. aeruginosa (strain PA14) it was 0.5 µM (≈ 0.234 µg/mL); against P. aeruginosa (strain PA97-5) it was over 16 µM; in the experiment on P. aeruginosa (strain PA129-5), 16 µM (≈ 7.48 µg/mL); against A. baumannii (strain AB-A2) it was 0.5 µM (≈ 0.234 µg/mL); in the experiment on A. baumannii (strain AB-A3), 16 µM (≈ 7.48 µg/mL). Also, the MIC in the experiment on A. baumannii (strain AB-F8) is over 16 µM; against A. baumannii (strain AB-F9), 2 µM (≈ 0.935 µg/mL); in the experiment with K. pneumoniae (strain KPA5), over 16 µM; in the experiment with K. pneumoniae (strain KPB3) it was over 16 µM.

Consider `CC(C)C[C@H](NC(=O)[C@H](Cc1ccccc1)NC(=O)[C@@H]1CCCN1C(=O)[C@H](Cc1c[nH]c2ccccc12)NC(=O)[C@H](Cc1c[nH]c2ccccc12)NC(=O)[C@H](Cc1c[nH]c2ccccc12)NC(=O)[C@@H]1CCCN1C(=O)[C@H](Cc1ccccc1)NC(=O)[C@H](CCCNC(=N)N)NC(=O)[C@H](CCCNC(=N)N)NC(=O)[C@@H](N)C(C)C)C(=O)N[C@@H](CCCNC(=N)N)C(=O)N[C@@H](CCCNC(=N)N)C(=O)O` [tritrpticin], for which the “mean MIC” value in experiment [2] is over 10 µM.

Take `Cc1nnc(SCC2=C(C(=O)O)N3C(=O)[C@@H](NC(=O)Cn4cnnn4)[C@H]3SC2)s1` [Cefa]: the MIC against E. Faecium (strain EF23614) was over 16 µM; in the experiment with E. Faecium (strain EF24670), over 16 µM; in the experiment with E. Faecium (strain EF26215) it was 4 µM (≈ 1.82 µg/mL); in the experiment with E. Faecium (strain EF26692), 4 µM (≈ 1.82 µg/mL); in the experiment with S. aureus (strain SA12212) it was 16 µM (≈ 7.27 µg/mL); with S. aureus (strain SA18710), 16 µM (≈ 7.27 µg/mL). Also, the figures for the MIC against S. aureus (strain SA49775) and in the experiment on S. aureus (strain SA-US300) were 2 µM (≈ 0.909 µg/mL) and 8 µM (≈ 3.64 µg/mL), respectively.

For the compound RRVWRRVRRVWRRVRRVWRRVV [E75], in the experiment on P. aeruginosa, the MIC was 13 µM.

The values are drawn from patent publication US20240197823A1, “CATIONIC ANTIMICROBIAL PEPTIDES AND USES THEREOF” (priority 2021, published 2024).
